The source of these data is patent US20210220291A1, “THERAPEUTIC COMPOSITIONS AND METHODS FOR PULMONARY FIBROSIS” (priority 2020, published 2021).

Holding throughout (format): in vivo, wistar rats
A short description of assay [1]: Bleomycin induced lung fibrosis in rats: lung index. Particulars: (weight of the lung/bodyweight)×100; iso-garcinol 10 mg/kg p.o., octahydrocurcumin 150 mg/kg, alone and combined; normal control 0.75 ± 0.053, fibrosis control 1.39 ± 0.034. As to the method: (§1) After overnight fasting, the wistar rats were anesthetized (60 mg/kg ketamine HCl and 5 mg/kg xylazine) and a midline incision was made in the neck and the trachea was exposed. A tracheal cannula was inserted under direct visualization into the trachea. Pulmonary fibrosis was induced by intratracheal administration of single dose 0.1 mL of bleomycin (5 mg/kg in 0.9% NaCl). Treatment with the test material was given 5 min after administration of bleomycin for 14 consecutive days. After 14 days, BALF (bronchoalveolar lavage fluid) was obtained. Lung tissue was weighed to determine the lung index. Lung homogenate was stored at −80° C. for analysis of bio-markers. (Yildirim A, Ersoy Y, Ercan F et al., “Phosphodiesterase-5 inhibition by sildenafil citrate in a rat model of bleomycin-induced lung fibrosis,” Pulmonary Pharmacol Therap. […]; 23(3):215-221; Chen L, Wang T, Wang X et al., “Blockade of advanced glycation end product formation attenuates bleomycin-induced pulmonary fibrosis in rats,” Respiratory Res. 2009; 10:55; Nergiz et al., The Protective Effect of Naringin against Bleomycin-Induced Pulmonary Fibrosis in Wistar Rats. Pulmonary Med. 2016, 12 p, http://dx.doi.org/10.1155/2016/7601393)
Lung index calculated using the below formula
Lung Index=(weight of the lung/bodyweight)×100

Assay [2] deals with TNF-α. The assay is described as follows: Bleomycin induced lung fibrosis in rats: TNF-α in lung tissue homogenate. The settings on record: iso-garcinol 10 mg/kg, octahydrocurcumin 150 mg/kg bodyweight, individually and in combination, vs pulmonary fibrosis control (FIG. 5). As to the method: (§2) After overnight fasting, the wistar rats were anesthetized (60 mg/kg ketamine HCl and 5 mg/kg xylazine) and a midline incision was made in the neck and the trachea was exposed. A tracheal cannula was inserted under direct visualization into the trachea. Pulmonary fibrosis was induced by intratracheal administration of single dose 0.1 mL of bleomycin (5 mg/kg in 0.9% NaCl). Treatment with the test material was given 5 min after administration of bleomycin for 14 consecutive days. After 14 days, BALF (bronchoalveolar lavage fluid) was obtained. Lung tissue was weighed to determine the lung index. Lung homogenate was stored at −80° C. for analysis of bio-markers. […]
(§3) The lung of the animals was removed and rinsed with ice-cold isotonic saline. […] The levels of HIF-1 alpha, TGF-β, IL-13, IL-1β, TNF-α, CCL-17, osteopontin and mucin in the lung tissue homogenate was determined using methods and protocols already reported in scientific literature.

Assay [3] has as its system CCL-17. The assay is described as follows: Bleomycin induced lung fibrosis in rats: CCL-17 in lung tissue homogenate. Particulars: iso-garcinol 10 mg/kg, octahydrocurcumin 150 mg/kg bodyweight, individually and in combination, vs pulmonary fibrosis control (FIG. 6). As to the method:
as §2, §3

Assay [4] relates to IL-1β. The assay is described as follows: Bleomycin induced lung fibrosis in rats: IL-1β in lung tissue homogenate. Particulars: iso-garcinol 10 mg/kg, octahydrocurcumin 150 mg/kg bodyweight, individually and in combination, vs pulmonary fibrosis control (FIG. 5). As to the method:
as §2, §3

Assay [5] relates to IL-13. The assay is described as follows: Bleomycin induced lung fibrosis in rats: IL-13 in lung tissue homogenate. The settings on record: iso-garcinol 10 mg/kg, octahydrocurcumin 150 mg/kg bodyweight, individually and in combination, vs pulmonary fibrosis control (FIG. 4). The protocol:
as §2, §3

Assay [6] deals with MUC 5B. The assay is described as follows: Bleomycin induced lung fibrosis in rats: mucin 5B in lung tissue homogenate. Particulars: iso-garcinol 10 mg/kg, octahydrocurcumin 150 mg/kg bodyweight, individually and in combination, vs pulmonary fibrosis control (FIG. 8). The protocol: as §2, §3
The test system of assay [7] is Collagen-I. The assay is described as follows: Bleomycin induced lung fibrosis in rats: collagen 1 levels. Particulars: iso-garcinol 10 mg/kg p.o., octahydrocurcumin 150 mg/kg, alone and combined; normal control 64.25 ± 4.98, fibrosis control 102.43 ± 3.70. As to the method:
as §2, §3

Assay [8] relates to TGF-β. The assay is described as follows: Bleomycin induced lung fibrosis in rats: TGF-β in lung tissue homogenate. The settings on record: iso-garcinol 10 mg/kg, octahydrocurcumin 150 mg/kg bodyweight, individually and in combination, 14 days; for reduction in TGF-β levels: compared to pulmonary fibrosis control group (1721 pg/ml); for TGF-β levels: control group 1721 pg/ml. As to the method:
as §1
(§4) The lung of the animals was removed and rinsed with ice-cold isotonic saline. To the tissues was added 4 ml/g tissue of extraction buffer containing 1 mM phenylmethylsulfonyl fluoride, 1 mg/ml aprotinin and 0.05% Tween 20 in phosphate buffered saline. Tissues were homogenized on ice with a polytron and the homogenate was centrifuged at 5000 g for 15 min. Aliquots of the supernatant were separated and used for biochemical analysis. Supernatants were stored at −80° C. until cytokine analysis (Pandey et al., Multifunctional neuroprotective effect of Withanone, a compound from Withania somnifera roots in alleviating cognitive dysfunction. Cytokine 102 (2018) 211-221). The levels of HIF-1 alpha, TGF-β, IL-13, IL-1β, TNF-α, CCL-17, osteopontin and mucin in the lung tissue homogenate was determined using methods and protocols already reported in scientific literature.

Assay [9] deals with HIF-1α. The assay is described as follows: Bleomycin induced lung fibrosis in rats: HIF-1 alpha in lung tissue homogenate. The settings on record: 14 days; for reduction in HIF-α levels: compared to pulmonary fibrosis control group (138.6 pg/ml); for reduction in HIF-α levels / HIF-α levels: iso-garcinol 10 mg/kg, octahydrocurcumin 150 mg/kg bodyweight, individually and in combination; for HIF-α levels: control group 138.6 pg/ml. The protocol: as §1, §4
Different concentration of iso-garcinol (5, 10, 20 mg/kg bodyweight) and octahydrocurcumin were first administered to rats and the effect of the compounds in reducing hypoxia related HIF-α was evaluated. […] Thus, iso-garcinol at 10 mg/kg bodyweight and octahydrocurcumin at 150 mg/kg bodyweight was used for the further combination studies.

Assay [10] relates to osteopontin. The assay is described as follows: Bleomycin induced lung fibrosis in rats: osteopontin in lung tissue homogenate. The settings on record: iso-garcinol 10 mg/kg, octahydrocurcumin 150 mg/kg bodyweight, individually and in combination, vs pulmonary fibrosis control (FIG. 7). As to the method: as §2, §3

As for `CC(C)=CC[C@H]1C[C@@]23C[C@@H](CC=C(C)C)C(C)(C)[C@@](CC=C(C)C)(C(=O)C(C(=O)c4ccc(O)c(O)c4)=C2OC1(C)C)C3=O` [iso-garcinol], the Lung index in [1] is on record as 1.19 ± 0.035. In addition, the TNF-α levels entry in assay [2] is recorded as “significantly reduced”. Further, the CCL-17 levels entry in [3] is “reduced”. Moreover, the IL-1β levels result in assay [4] is recorded as “significantly reduced”. For the same compound, the IL-13 levels result in [5] is given as “significantly reduced”. In addition, the “MUC 5B levels” value in assay [6] is on record as “reduced”. The Collagen-I in assay [7] stood at 89.68 ± 3.23 µg/mL. Moreover, in assay [8], the “reduction in TGF-β levels” value stood at 42.62% and the TGF-β levels came out at 987.5 pg/mL. The “reduction of hypoxia related HIF-α (determination of effective dose)” value in assay [9] (bleomycin rats, iso-garcinol 5, 10, 20 mg/kg bodyweight and different doses of octahydrocurcumin (FIG. 1)) is “better reduction of HIF-α at 10 mg/kg bodyweight”. Also, in assay [9], the “reduction in HIF-α levels” value is recorded as 55% and the HIF-α levels is 61.9 pg/mL. The osteopontin levels result in assay [10] is “reduced”.
For the compound `COc1cc(CCC(O)CC(O)CCc2ccc(O)c(OC)c2)ccc1O` (stereo not shown) [octahydrocurcumin], the Lung index in assay [1] came to 1.02 ± 0.045. In assay [7], the Collagen-I turned out to be 95.56 ± 4.90 µg/mL. In assay [8], the “reduction in TGF-β levels” value was 28.62% and the TGF-β levels was found to be 1228.4 pg/mL. In assay [9], the “reduction in HIF-α levels” value is recorded as 36.6% and the HIF-α levels amounted to 83.7 pg/mL.
